In US7704995B2 (Exelixis, Inc., priority 2003, dated 2010):

target: T1, Chk1 (Homo sapiens, UniProt O14757); test: Chk1 kinase assay: incorporation of γ-33P ATP into immobilized myelin basic protein; format: biochemical; settings: Table 11; Chk1 only; read-out: Chk1 IC50
T1 construct: purchased Upstate Biotechnology
T1 sequence (O14757 1-476): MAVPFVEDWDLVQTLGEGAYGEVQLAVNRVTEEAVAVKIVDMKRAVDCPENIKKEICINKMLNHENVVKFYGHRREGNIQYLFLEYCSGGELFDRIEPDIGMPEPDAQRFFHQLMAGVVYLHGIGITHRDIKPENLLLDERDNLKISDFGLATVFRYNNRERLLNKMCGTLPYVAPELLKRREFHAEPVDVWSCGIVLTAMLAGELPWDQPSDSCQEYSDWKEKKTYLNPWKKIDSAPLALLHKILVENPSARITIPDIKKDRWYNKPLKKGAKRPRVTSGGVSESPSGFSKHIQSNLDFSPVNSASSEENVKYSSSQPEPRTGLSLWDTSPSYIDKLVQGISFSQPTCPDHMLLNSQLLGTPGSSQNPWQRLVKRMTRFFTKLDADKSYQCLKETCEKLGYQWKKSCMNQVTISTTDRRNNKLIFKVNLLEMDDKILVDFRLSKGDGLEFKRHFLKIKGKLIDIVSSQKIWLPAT
Method in brief: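 Radiometric filter-free format: Chk1 10 nM, 10 μM ATP; Chk2 20 nM, 30 μM ATP; γ-33P ATP tracer; immobilized MBP substrate; Hepes pH 7.6, 10 mM MgCl2, 1 mM DTT; 1 h RT; 1% DMSO. Scintillation counting of washed plates. IC50/Ki from curve fit.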

IC50, ≥ 10000 nM:
CC(C)(C)OC(=O)N1CC[C@H](CNC(=O)c2nc(-c3cccc(C(=O)N[C@@H]4c5ccccc5C[C@@H]4O)c3)cnc2N)C1 [Example 786, 1,1-dimethylethyl (3R)-3-{[({3-amino-6-[3-({[(1R,2S)-2-hydroxy-2,3-dihydro-1H-inden-1-yl]amino}carbonyl)phenyl]pyrazin-2-yl}carbonyl)amino]methyl}pyrrolidine-1-carboxylate]
CC(C)(C)OC(=O)N1CCC[C@@H](NC(=O)c2nc(-c3cccc(C(=O)N[C@@H]4c5ccccc5C[C@@H]4O)c3)cnc2N)C1 [Example 795, 1,1-dimethylethyl (3R)-3-[({3-amino-6-[3-({[(1R,2S)-2-hydroxy-2,3-dihydro-1H-inden-1-yl]amino}carbonyl)phenyl]pyrazin-2-yl}carbonyl)amino]piperidine-1-carboxylate]
Cc1nc(-c2nc(-c3cccc(C(=O)N[C@H]4CCc5ccccc54)c3)cnc2N)nn1C [Example 799, 3-[5-amino-6-(1,5-dimethyl-1H-1,2,4-triazol-3-yl)pyrazin-2-yl]-N-[(1S)-2,3-dihydro-1H-inden-1-yl]benzamide]
CC(C)(C)OC(=O)N1CC[C@H](NC(=O)c2nc(-c3cccc(C(=O)NC(C)(C)c4ccccc4)c3)cnc2N)C1 [Example 800, 1,1-dimethylethyl (3S)-3-({[3-amino-6-(3-{[(1-methyl-1-phenylethyl)amino]carbonyl}phenyl)pyrazin-2-yl]carbonyl}amino)pyrrolidine-1-carboxylate]

IC50, < 50 nM:
CC(C)(C)OC(=O)N1CCC[C@H](NC(=O)c2nc(-c3cccc(C(=O)N[C@@H]4c5ccccc5C[C@@H]4O)c3)cnc2N)C1 [Example 777, 1,1-dimethylethyl (3S)-3-[({3-amino-6-[3-({[(1R,2S)-2-hydroxy-2,3-dihydro-1H-inden-1-yl]amino}carbonyl)phenyl]pyrazin-2-yl}carbonyl)amino]piperidine-1-carboxylate]
Nc1ncc(-c2cccc(C(=O)N[C@@H]3c4ccccc4C[C@@H]3O)c2)nc1C(=O)NC[C@@H]1CCNC1 [Example 780, 3-amino-6-[3-({[(1R,2S)-2-hydroxy-2,3-dihydro-1H-inden-1-yl]amino}carbonyl)phenyl]-N-[(3R)-pyrrolidin-3-ylmethyl]pyrazine-2-carboxamide]
Nc1ncc(-c2cccc(C(=O)N[C@@H]3c4ccccc4C[C@@H]3O)c2)nc1C(=O)NC1CCCNCC1 (stereo partly drawn) [Example 782, 3-amino-N-azepan-4-yl-6-[3-({[(1R,2S)-2-hydroxy-2,3-dihydro-1H-inden-1-yl]amino}carbonyl)phenyl]pyrazine-2-carboxamide]
Nc1ncc(-c2cccc(C(=O)N[C@H]3CCc4ccccc43)c2)nc1C(=O)NC[C@H]1CCNC1 [Example 785, 3-amino-6-(3-{[(1S)-2,3-dihydro-1H-inden-1-ylamino]carbonyl}phenyl)-N-[(3S)-pyrrolidin-3-ylmethyl]pyrazine-2-carboxamide]
Nc1ncc(-c2cccc(C(=O)N[C@@H]3c4ccccc4C[C@@H]3O)c2)nc1C(=O)NC[C@H]1CCNC1 [Example 787, 3-amino-6-[3-({[(1R,2S)-2-hydroxy-2,3-dihydro-1H-inden-1-yl]amino}carbonyl)phenyl]-N-[(3S)-pyrrolidin-3-ylmethyl]pyrazine-2-carboxamide]

IC50, 1000 to 10000 nM:
CNC(=O)c1nc(-c2cc(C(=O)O)cc(C(=O)OC)c2)cnc1N [Example 789, 3-{5-amino-6-[(methylamino)carbonyl]pyrazin-2-yl}-5-[(methyloxy)carbonyl]benzoic acid]
Nc1ncc(-c2cccc(C(=O)NCc3ccccc3)c2)nc1-c1nc(-c2ccccc2)n(-c2ccccn2)n1 [Example 792, 3-[5-amino-6-(5-phenyl-1-pyridin-2-yl-1H-1,2,4-triazol-3-yl)pyrazin-2-yl]-N-(phenylmethyl)benzamide]
Cc1nc(-c2nc(-c3cccc(C(=O)N[C@H]4CCc5ccccc54)c3)cnc2N)nn1-c1ccncc1 [Example 793, 3-[5-amino-6-(5-methyl-1-pyridin-4-yl-1H-1,2,4-triazol-3-yl)pyrazin-2-yl]-N-[(1S)-2,3-dihydro-1H-inden-1-yl]benzamide]
CC(C)(C)OC(=O)N1CCC[C@@H](NC(=O)c2nc(-c3cccc(C(=O)N[C@H]4CCc5ccccc54)c3)cnc2N)C1 [Example 794, 1,1-dimethylethyl (3R)-3-({[3-amino-6-(3-{[(1S)-2,3-dihydro-1H-inden-1-ylamino]carbonyl}phenyl)pyrazin-2-yl]carbonyl}amino)piperidine-1-carboxylate]
NC(=O)c1nc(-c2cccc(S(=O)(=O)N[C@H]3CCc4ccccc43)c2)cnc1N [Example 802, 3-amino-6-(3-{[(1S)-2,3-dihydro-1H-inden-1-ylamino]sulfonyl}phenyl)pyrazine-2-carboxamide]

IC50, 50 to 1000 nM:
CC(C)(C)OC(=O)N1CCC[C@H](NC(=O)c2nc(-c3cccc(C(=O)N[C@H]4CCc5ccccc54)c3)cnc2N)C1 [Example 776, 1,1-dimethylethyl (3S)-3-({[3-amino-6-(3-{[(1S)-2,3-dihydro-1H-inden-1-ylamino]carbonyl}phenyl)pyrazin-2-yl]carbonyl}amino)piperidine-1-carboxylate]
Nc1ncc(-c2cccc(C(=O)NC3CCOc4ccccc43)c2)nc1C(=O)N[C@H]1CCNC1 (stereo partly drawn) [Example 778, 3-amino-6-{3-[(3,4-dihydro-2H-chromen-4-ylamino)carbonyl]phenyl}-N-[(3S)-pyrrolidin-3-yl]pyrazine-2-carboxamide]
Nc1ncc(-c2cccc(C(=O)NC3COc4ccccc43)c2)nc1C(=O)N[C@H]1CCNC1 (stereo partly drawn) [Example 779, 3-amino-6-{3-[(2,3-dihydro-1-benzofuran-3-ylamino)carbonyl]phenyl}-N-[(3S)-pyrrolidin-3-yl]pyrazine-2-carboxamide]
CC(C)(C)OC(=O)N1CCCC(NC(=O)c2nc(-c3cccc(C(=O)N[C@@H]4c5ccccc5C[C@@H]4O)c3)cnc2N)CC1 (stereo partly drawn) [Example 781, 1,1-dimethylethyl 4-[({3-amino-6-[3-({[(1R,2S)-2-hydroxy-2,3-dihydro-1H-inden-1-yl]amino}carbonyl)phenyl]pyrazin-2-yl}carbonyl)amino]azepane-1-carboxylate]
Nc1ncc(-c2cccc(C3=N[C@@H]4c5ccccc5C[C@@H]4O3)c2)nc1C(=O)NC1CCCNCC1 (stereo partly drawn) [Example 783, 3-amino-N-azepan-4-yl-6-{3-[(3aR,8aS)-8,8a-dihydro-3aH-indeno[1,2-d][1,3]oxazol-2-yl]phenyl}pyrazine-2-carboxamide]
CNC(=O)c1nc(-c2cc(F)cc(C(=O)N[C@H]3CCc4ccccc43)c2)cnc1N [Example 788, 3-amino-6-(3-{[(1S)-2,3-dihydro-1H-inden-1-ylamino]carbonyl}-5-fluorophenyl)-N-methylpyrazine-2-carboxamide]
CNC(=O)c1nc(-c2cc(C(=O)N[C@H]3CCc4ccccc43)cc(C(=O)OC)c2)cnc1N [Example 790, methyl 3-{5-amino-6-[(methylamino)carbonyl]pyrazin-2-yl}-5-{[(1S)-2,3-dihydro-1H-inden-1-ylamino]carbonyl}benzoate]
CNC(=O)c1nc(-c2cc(C(=O)NC3CCNC3)cc(C(=O)N[C@H]3CCc4ccccc43)c2)cnc1N (stereo partly drawn) [Example 791, 5-{5-amino-6-[(methylamino)carbonyl]pyrazin-2-yl}-N-[(1S)-2,3-dihydro-1H-inden-1-yl]-N′-pyrrolidin-3-ylbenzene-1,3-dicarboxamide]
CNC(=O)c1nc(-c2cc(C(=O)N[C@@H]3CCNC3)cc(C(=O)N[C@@H]3CCc4ccccc43)c2)cnc1N [Example 797, 5-{5-amino-6-[(methylamino)carbonyl]pyrazin-2-yl}-N-[(1R)-2,3-dihydro-1H-inden-1-yl]-N′-[(3R)-pyrrolidin-3-yl]benzene-1,3-dicarboxamide]
Nc1cc(-c2n[nH]c(-c3nc(-c4cccc(CO)c4)cnc3N)n2)ccn1 [Example 798, (3-{5-amino-6-[3-(2-aminopyridin-4-yl)-1H-1,2,4-triazol-5-yl]pyrazin-2-yl}phenyl)methanol]
CC(C)(NC(=O)c1cccc(-c2cnc(N)c(C(=O)N[C@H]3CCNC3)n2)c1)c1ccccc1 [Example 801, 3-amino-6-(3-{[(1-methyl-1-phenylethyl)amino]carbonyl}phenyl)-N-[(3S)-pyrrolidin-3-yl]pyrazine-2-carboxamide]
Nc1ncc(-c2cccc(S(=O)(=O)N[C@H]3CCc4ccccc43)c2)nc1C(=O)NC1CCCNC1 (stereo partly drawn) [Example 803, 3-amino-6-(3-{[(1S)-2,3-dihydro-1H-inden-1-ylamino]sulfonyl}phenyl)-N-piperidin-3-ylpyrazine-2-carboxamide]
CN1CC[C@H](NC(=O)c2nc(-c3cccc(C(=O)N[C@H]4CCc5ccccc54)c3)cnc2N)C1 [Example 804, 3-amino-6-(3-{[(1S)-2,3-dihydro-1H-inden-1-ylamino]carbonyl}phenyl)-N-[(3S)-1-methylpyrrolidin-3-yl]pyrazine-2-carboxamide]
